Patent US4868321A, “Isothiocyanate intermediates” (FMC Corporation, priority 1988, dated 1989)
Structures can show the parent of a compound that is named as a salt.

Experiments:
Format in all cases: in vivo
Velvetleaf [1] = test: Postemergence Herbicidal Activity, Velvetleaf; conditions: Abutilon theophrasti, post-emergence; for pest or weed control at 2000 g/ha: 2.0 kg/ha
Outline: (§1)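 Applications are made pre- or postemergence from 50/50 acetone/water solutions of each compound. Effect is recorded as % C at the stated kg/ha rate.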

Soybean [2] = test: Preemergence Herbicidal Activity, Soybean; conditions: Glycine max, pre-emergence; for plant injury at 2000 g/ha: 2.0 kg/ha
Outline: (§2)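 Application rate is expressed per hectare in kilograms. Values are percent control.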

Velvetleaf [3] = test: Preemergence Herbicidal Activity, Velvetleaf; conditions: Abutilon theophrasti, pre-emergence; for pest or weed control at 2000 g/ha: 2.0 kg/ha
Outline: as §1

Field Bindweed [4] = test: Preemergence Herbicidal Activity, Field Bindweed; conditions: pre-emergence; for pest or weed control at 2000 g/ha: 2.0 kg/ha
Outline: as §1

Green Foxtail [5] = test: Postemergence Herbicidal Activity, Green Foxtail; conditions: Setaria viridis, post-emergence; for pest or weed control at 2000 g/ha: 2.0 kg/ha
Outline: (§3)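 Efficacy is recorded as percent control at each application rate, expressed in kg/ha.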

Barnyardgrass [6] = test: Postemergence Herbicidal Activity, Barnyardgrass; conditions: Echinochloa crus-galli, post-emergence; for pest or weed control at 2000 g/ha: 2.0 kg/ha
Outline: as §3

Rice [7] = test: Postemergence Herbicidal Activity, Rice; conditions: Oryza sativa, post-emergence; for plant injury at 2000 g/ha: 2.0 kg/ha
Outline: as §2

Johnsongrass [8] = test: Postemergence Herbicidal Activity, Johnsongrass; conditions: Sorghum halepense, post-emergence; for pest or weed control at 2000 g/ha: 2.0 kg/ha
Outline: as §3

Morningglory [9] = test: Preemergence Herbicidal Activity, Morningglory; conditions: Ipomoea, pre-emergence; for pest or weed control at 2000 g/ha: 2.0 kg/ha
Outline: as §1

Soybean [10] = test: Postemergence Herbicidal Activity, Soybean; conditions: Glycine max, post-emergence; for plant injury at 2000 g/ha: 2.0 kg/ha
Outline: as §2

Barnyardgrass [11] = test: Preemergence Herbicidal Activity, Barnyardgrass; conditions: Echinochloa crus-galli, pre-emergence; for pest or weed control at 2000 g/ha: 2.0 kg/ha
Outline: as §3

Morningglory [12] = test: Postemergence Herbicidal Activity, Morningglory; conditions: Ipomoea, post-emergence; for pest or weed control at 2000 g/ha: 2.0 kg/ha
Outline: as §1

Wheat [13] = test: Postemergence Herbicidal Activity, Wheat; conditions: Triticum aestivum, post-emergence; for plant injury at 2000 g/ha: 2.0 kg/ha
Outline: as §2

Green Foxtail [14] = test: Preemergence Herbicidal Activity, Green Foxtail; conditions: Setaria viridis, pre-emergence; for pest or weed control at 2000 g/ha: 2.0 kg/ha
Outline: as §3

Field Corn [15] = test: Postemergence Herbicidal Activity, Field Corn; conditions: Zea mays, post-emergence; for plant injury at 2000 g/ha: 2.0 kg/ha
Outline: as §2

Field Bindweed [16] = test: Postemergence Herbicidal Activity, Field Bindweed; conditions: post-emergence; for pest or weed control at 2000 g/ha: 2.0 kg/ha
Outline: as §1

Wheat [17] = test: Preemergence Herbicidal Activity, Wheat; conditions: Triticum aestivum, pre-emergence; for plant injury at 2000 g/ha: 2.0 kg/ha
Outline: as §2

Cotton [18] = test: Postemergence Herbicidal Activity, Cotton; conditions: Gossypium hirsutum, post-emergence; for plant injury at 2000 g/ha: 2.0 kg/ha
Outline: as §1

Field Corn [19] = test: Preemergence Herbicidal Activity, Field Corn; conditions: Zea mays, pre-emergence; for plant injury at 2000 g/ha: 2.0 kg/ha
Outline: as §2

Cotton [20] = test: Preemergence Herbicidal Activity, Cotton; conditions: Gossypium hirsutum, pre-emergence; for plant injury at 2000 g/ha: 2.0 kg/ha
Outline: as §1

Rice [21] = test: Preemergence Herbicidal Activity, Rice; conditions: Oryza sativa, pre-emergence; for plant injury at 2000 g/ha: 2.0 kg/ha
Outline: as §2

Johnsongrass [22] = test: Preemergence Herbicidal Activity, Johnsongrass; conditions: Sorghum halepense, pre-emergence; for pest or weed control at 2000 g/ha: 2.0 kg/ha
Outline: as §3

CCS(=O)(=O)N(c1cc(-n2nnn(CCCF)c2=O)c(Cl)cc1F)S(=O)(=O)CC [Compound 37, 1-[2-Chloro-4-fluoro-5-[bis(N--ethylsulfonyl)amino]phenyl]-4,5-dihydro-4-(3-fluoropropyl)-5H--tetrazol-5-one]
pest or weed control at 2000 g/ha (Velvetleaf [1]): 80%
plant injury at 2000 g/ha (Soybean [2]): 0%
pest or weed control at 2000 g/ha (Velvetleaf [3]): 100%
pest or weed control at 2000 g/ha (Field Bindweed [4]): 20%
pest or weed control at 2000 g/ha (Green Foxtail [5]): 50%
pest or weed control at 2000 g/ha (Barnyardgrass [6]): 30%
plant injury at 2000 g/ha (Rice [7]): 20%
pest or weed control at 2000 g/ha (Johnsongrass [8]): 20%
pest or weed control at 2000 g/ha (Morningglory [9]): 20%
plant injury at 2000 g/ha (Soybean [10]): 40%
pest or weed control at 2000 g/ha (Barnyardgrass [11]): 80%
pest or weed control at 2000 g/ha (Morningglory [12]): 50%
plant injury at 2000 g/ha (Wheat [13]): 20%
pest or weed control at 2000 g/ha (Green Foxtail [14]): 50%
plant injury at 2000 g/ha (Field Corn [15]): 20%
pest or weed control at 2000 g/ha (Field Bindweed [16]): 40%
plant injury at 2000 g/ha (Wheat [17]): 30%
plant injury at 2000 g/ha (Cotton [18]): 70%
plant injury at 2000 g/ha (Field Corn [19]): 20%
plant injury at 2000 g/ha (Cotton [20]): 10%
plant injury at 2000 g/ha (Rice [21]): 0%
pest or weed control at 2000 g/ha (Johnsongrass [22]): 70%

O=c1n(CCCF)nnn1-c1cc(NS(=O)(=O)C(F)(F)F)c(Cl)cc1F [Compound 32, 1-[4-Chloro-2-fluoro-5-(N--trifluoromethylsulfonylamino)phenyl]-1,4-dihydro-4-(3-fluoropropyl)-5H--tetrazol-5-one potassium salt]
pest or weed control at 2000 g/ha (Velvetleaf [1]): 100%
plant injury at 2000 g/ha (Soybean [2]): 40%
pest or weed control at 2000 g/ha (Velvetleaf [3]): 100%
pest or weed control at 2000 g/ha (Field Bindweed [4]): 100%
pest or weed control at 2000 g/ha (Green Foxtail [5]): 40%
pest or weed control at 2000 g/ha (Barnyardgrass [6]): 70%
plant injury at 2000 g/ha (Rice [7]): 40%
pest or weed control at 2000 g/ha (Johnsongrass [8]): 70%
pest or weed control at 2000 g/ha (Morningglory [9]): 100%
plant injury at 2000 g/ha (Soybean [10]): 100%
pest or weed control at 2000 g/ha (Barnyardgrass [11]): 95%
pest or weed control at 2000 g/ha (Morningglory [12]): 100%
plant injury at 2000 g/ha (Wheat [13]): 40%
pest or weed control at 2000 g/ha (Green Foxtail [14]): 60%
plant injury at 2000 g/ha (Field Corn [15]): 70%
pest or weed control at 2000 g/ha (Field Bindweed [16]): 100%
plant injury at 2000 g/ha (Wheat [17]): 10%
plant injury at 2000 g/ha (Cotton [18]): 100%
plant injury at 2000 g/ha (Field Corn [19]): 50%
plant injury at 2000 g/ha (Cotton [20]): 100%
plant injury at 2000 g/ha (Rice [21]): 95%
pest or weed control at 2000 g/ha (Johnsongrass [22]): 80%

CCN(c1cc(-n2nnn(CCCF)c2=O)c(F)cc1Cl)S(=O)(=O)CC [Compound 13, 1-[4-chloro-2-fluoro-5-[(N--ethyl-N--ehtylsulfonyl)amino]phenyl]-1,4-dihydro-4-(3-fluoropropyl)-5H--tetrazol-5-one]
pest or weed control at 1000 g/ha (Velvetleaf [1]; 1.0 kg/ha): 100%
plant injury at 1000 g/ha (Soybean [2]; 1.0 kg/ha): 95%
pest or weed control at 1000 g/ha (Velvetleaf [3]; 1.0 kg/ha): 100%
pest or weed control at 1000 g/ha (Field Bindweed [4]; 1.0 kg/ha): 100%
pest or weed control at 1000 g/ha (Green Foxtail [5]; 1.0 kg/ha): 100%
pest or weed control at 1000 g/ha (Barnyardgrass [6]; 1.0 kg/ha): 100%
plant injury at 1000 g/ha (Rice [7]; 1.0 kg/ha): 100%
pest or weed control at 1000 g/ha (Johnsongrass [8]; 1.0 kg/ha): 100%
pest or weed control at 1000 g/ha (Morningglory [9]; 1.0 kg/ha): 95%
plant injury at 1000 g/ha (Soybean [10]; 1.0 kg/ha): 95%
pest or weed control at 1000 g/ha (Barnyardgrass [11]; 1.0 kg/ha): 100%
pest or weed control at 1000 g/ha (Morningglory [12]; 1.0 kg/ha): 100%
plant injury at 1000 g/ha (Wheat [13]; 1.0 kg/ha): 100%
pest or weed control at 1000 g/ha (Green Foxtail [14]; 1.0 kg/ha): 100%
plant injury at 1000 g/ha (Field Corn [15]; 1.0 kg/ha): 100%
pest or weed control at 1000 g/ha (Field Bindweed [16]; 1.0 kg/ha): 100%
plant injury at 1000 g/ha (Wheat [17]; 1.0 kg/ha): 100%
plant injury at 1000 g/ha (Cotton [18]; 1.0 kg/ha): 100%
plant injury at 1000 g/ha (Field Corn [19]; 1.0 kg/ha): 100%
plant injury at 1000 g/ha (Cotton [20]; 1.0 kg/ha): 95%
plant injury at 1000 g/ha (Rice [21]; 1.0 kg/ha): 100%
pest or weed control at 1000 g/ha (Johnsongrass [22]; 1.0 kg/ha): 100%

CCS(=O)(=O)N(COC)c1cc(-n2nnn(CCCF)c2=O)c(F)cc1Cl [Compound 15, 1-[4-chloro-2-fluoro-5-[(N---ethylsulfonyl-N--methoxymethyl)amino]-phenyl]-1,4-dihydro-4-(3-fluoropropyl)-5H--tetrazol-5-one]
pest or weed control at 500 g/ha (Velvetleaf [1]; 0.5 kg/ha): 100%
plant injury at 500 g/ha (Soybean [2]; 0.5 kg/ha): 95%
pest or weed control at 500 g/ha (Velvetleaf [3]; 0.5 kg/ha): 100%
pest or weed control at 500 g/ha (Field Bindweed [4]; 0.5 kg/ha): 100%
pest or weed control at 500 g/ha (Green Foxtail [5]; 0.5 kg/ha): 90%
pest or weed control at 500 g/ha (Barnyardgrass [6]; 0.5 kg/ha): 80%
plant injury at 500 g/ha (Rice [7]; 0.5 kg/ha): 60%
pest or weed control at 500 g/ha (Johnsongrass [8]; 0.5 kg/ha): 80%
pest or weed control at 500 g/ha (Morningglory [9]; 0.5 kg/ha): 100%
plant injury at 500 g/ha (Soybean [10]; 0.5 kg/ha): 95%
pest or weed control at 500 g/ha (Barnyardgrass [11]; 0.5 kg/ha): 100%
pest or weed control at 500 g/ha (Morningglory [12]; 0.5 kg/ha): 100%
plant injury at 500 g/ha (Wheat [13]; 0.5 kg/ha): 100%
pest or weed control at 500 g/ha (Green Foxtail [14]; 0.5 kg/ha): 100%
plant injury at 500 g/ha (Field Corn [15]; 0.5 kg/ha): 95%
pest or weed control at 500 g/ha (Field Bindweed [16]; 0.5 kg/ha): 80%
plant injury at 500 g/ha (Wheat [17]; 0.5 kg/ha): 100%
plant injury at 500 g/ha (Cotton [18]; 0.5 kg/ha): 100%
plant injury at 500 g/ha (Field Corn [19]; 0.5 kg/ha): 100%
plant injury at 500 g/ha (Cotton [20]; 0.5 kg/ha): 100%
plant injury at 500 g/ha (Rice [21]; 0.5 kg/ha): 100%
pest or weed control at 500 g/ha (Johnsongrass [22]; 0.5 kg/ha): 100%

CS(=O)(=O)Nc1cc(-n2nnn(CCCF)c2=O)c(F)cc1Br [Compound 33, 1-[4-Bromo-2-fluoro-5-(N--methylsulfonylamino)phenyl]-1,4-dihydro-(3-fluoropropyl)-5H--tetrazol-5-one]
pest or weed control at 250 g/ha (Velvetleaf [1]; 0.25 kg/ha): 100%
plant injury at 250 g/ha (Soybean [2]; 0.25 kg/ha): 10%
pest or weed control at 250 g/ha (Velvetleaf [3]; 0.25 kg/ha): 100%
pest or weed control at 250 g/ha (Field Bindweed [4]; 0.25 kg/ha): 100%
pest or weed control at 250 g/ha (Green Foxtail [5]; 0.25 kg/ha): 100%
pest or weed control at 250 g/ha (Barnyardgrass [6]; 0.25 kg/ha): 80%
plant injury at 250 g/ha (Rice [7]; 0.25 kg/ha): 80%
pest or weed control at 250 g/ha (Johnsongrass [8]; 0.25 kg/ha): 70%
pest or weed control at 250 g/ha (Morningglory [9]; 0.25 kg/ha): 100%
plant injury at 250 g/ha (Soybean [10]; 0.25 kg/ha): 70%
pest or weed control at 250 g/ha (Barnyardgrass [11]; 0.25 kg/ha): 95%
pest or weed control at 250 g/ha (Morningglory [12]; 0.25 kg/ha): 100%
plant injury at 250 g/ha (Wheat [13]; 0.25 kg/ha): 40%
pest or weed control at 250 g/ha (Green Foxtail [14]; 0.25 kg/ha): 70%
plant injury at 250 g/ha (Field Corn [15]; 0.25 kg/ha): 30%
pest or weed control at 250 g/ha (Field Bindweed [16]; 0.25 kg/ha): 100%
plant injury at 250 g/ha (Wheat [17]; 0.25 kg/ha): 20%
plant injury at 250 g/ha (Cotton [18]; 0.25 kg/ha): 100%
plant injury at 250 g/ha (Field Corn [19]; 0.25 kg/ha): 40%
plant injury at 250 g/ha (Cotton [20]; 0.25 kg/ha): 100%
plant injury at 250 g/ha (Rice [21]; 0.25 kg/ha): 80%
pest or weed control at 250 g/ha (Johnsongrass [22]; 0.25 kg/ha): 70%
